From ChEMBL document CHEMBL4007428, “Modulating the selectivity of matriptase-2 inhibitors with unnatural amino acids” (Eur J Med Chem, 2017)
pKi: −log10 of the molar value.

Molecular target: T1, Transmembrane protease serine 6 (Homo sapiens, UniProt Q8IU80)
T1 sequence (Q8IU80 whole entry): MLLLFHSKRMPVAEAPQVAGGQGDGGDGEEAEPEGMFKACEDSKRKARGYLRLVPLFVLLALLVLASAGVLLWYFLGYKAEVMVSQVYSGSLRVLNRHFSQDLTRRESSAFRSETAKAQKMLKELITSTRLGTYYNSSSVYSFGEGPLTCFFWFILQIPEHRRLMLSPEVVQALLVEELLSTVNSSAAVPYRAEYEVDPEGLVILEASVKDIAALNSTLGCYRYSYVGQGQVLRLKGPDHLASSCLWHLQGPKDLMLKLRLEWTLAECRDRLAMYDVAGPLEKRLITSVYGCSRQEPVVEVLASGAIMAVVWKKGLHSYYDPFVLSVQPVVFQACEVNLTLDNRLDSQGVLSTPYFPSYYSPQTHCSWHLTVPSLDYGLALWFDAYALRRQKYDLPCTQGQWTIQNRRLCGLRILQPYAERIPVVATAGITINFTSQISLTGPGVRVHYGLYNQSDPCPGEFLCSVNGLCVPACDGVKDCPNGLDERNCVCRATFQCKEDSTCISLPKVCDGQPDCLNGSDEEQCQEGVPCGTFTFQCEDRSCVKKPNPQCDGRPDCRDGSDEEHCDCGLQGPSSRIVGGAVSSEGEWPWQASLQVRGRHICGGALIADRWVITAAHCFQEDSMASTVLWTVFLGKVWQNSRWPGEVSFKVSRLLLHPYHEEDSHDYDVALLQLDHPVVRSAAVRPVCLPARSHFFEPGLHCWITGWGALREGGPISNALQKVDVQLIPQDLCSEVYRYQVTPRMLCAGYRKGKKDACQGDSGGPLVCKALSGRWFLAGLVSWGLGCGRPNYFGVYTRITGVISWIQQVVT
Assay: Inhibition of recombinant human C-terminal V5-His-tagged matriptase-2 expressed in Drosophila S2 cells using Boc-Gln-Ala-ArgAMC as substrate measured for 1200 mins by fluorescence assay
Conditions: not given

| Compound | pKi |
| --- | --- |
| N=C(N)NCCC[C@H](NC(=O)[C@H](Cc1ccc2ccccc2c1)NC(=O)C(Cc1ccc(O)cc1)NC(=O)[C@@H](N)Cc1ccc(O)cc1)C(=O)c1nc2ccccc2s1 (single isomer, unassigned) | 8.28 |
| N=C(N)NCCC[C@H](NC(=O)[C@H](Cc1ccc(O)c(O)c1)NC(=O)C(Cc1ccc(O)cc1)NC(=O)[C@@H](N)Cc1ccc(O)cc1)C(=O)c1nc2ccccc2s1 (single isomer, unassigned) | 8.30 |
| CC[C@H](C)[C@@H](NC(=O)[C@H](CCc1ccccc1)NC(=O)CCc1ccccc1)C(=O)N[C@@H](CCCNC(=N)N)C(=O)c1nc2ccccc2s1 | 6.16 |
| C[C@H](O)[C@H](NC(=O)[C@H](CCc1ccccc1)NC(=O)CCc1ccccc1)C(=O)N[C@@H](CCCNC(=N)N)C(=O)c1nc2ccccc2s1 | 8.51 |
| CC(C)[C@H](NC(=O)[C@H](Cc1ccccc1)NC(=O)[C@@H](N)Cc1ccc(O)cc1)C(=O)N[C@@H](CCCNC(=N)N)C(=O)c1nc2ccccc2s1 | 8.05 |
| N=C(N)NCCC[C@H](NC(=O)[C@H](Cc1c[nH]c2ccccc12)NC(=O)C(Cc1ccc(O)cc1)NC(=O)[C@@H](N)Cc1ccc(O)cc1)C(=O)c1nc2ccccc2s1 (single isomer, unassigned) | 8.51 |
| N=C(N)NCCC[C@H](NC(=O)[C@H](Cc1ccc(O)cc1)NC(=O)C(Cc1ccc(O)cc1)NC(=O)[C@@H](N)Cc1ccc(O)cc1)C(=O)c1nc2ccccc2s1 (single isomer, unassigned) | 8.96 |
| CC(C)(C)[C@H](NC(=O)[C@H](CCc1ccccc1)NC(=O)CCc1ccccc1)C(=O)N[C@@H](CCCNC(=N)N)C(=O)c1nc2ccccc2s1 | 6.25 |
| CC(C)[C@H](NC(=O)[C@H](Cc1cscn1)NC(=O)CCc1ccccc1)C(=O)N[C@@H](CCCNC(=N)N)C(=O)c1nc2ccccc2s1 | 8.92 to 9.40 |
| CC[C@H](C)[C@H](NC(=O)[C@H](CCc1ccccc1)NC(=O)CCc1ccccc1)C(=O)N[C@@H](CCCNC(=N)N)C(=O)c1nc2ccccc2s1 | 8.40 |
| N=C(N)NCCC[C@H](NC(=O)[C@H](Cc1cccs1)NC(=O)C(Cc1ccc(O)cc1)NC(=O)[C@@H](N)Cc1ccc(O)cc1)C(=O)c1nc2ccccc2s1 (single isomer, unassigned) | 8.22 |
| CC(C)CCC(=O)NC(Cc1ccc(O)cc1)C(=O)N[C@H](C(=O)N[C@@H](CCCNC(=N)N)C(=O)c1nc2ccccc2s1)C(C)C (single isomer, unassigned) | 8.22 |
| CC[C@@H](C)[C@H](NC(=O)[C@H](CCc1ccccc1)NC(=O)CCc1ccccc1)C(=O)N[C@@H](CCCNC(=N)N)C(=O)c1nc2ccccc2s1 | 8.59 |
| CC(C)C[C@H](NC(=O)[C@H](CCc1ccccc1)NC(=O)CCc1ccccc1)C(=O)N[C@@H](CCCNC(=N)N)C(=O)c1nc2ccccc2s1 | 8.28 |

Tested on: not listed separately
Assay: Stability in mouse plasma assessed as parent compound remaining after 24 hrs
Assay type: ADME, cell-free
Conditions: read-out: Stability

| Compound | remaining at 24 h |
| --- | --- |
| CC(C)[C@H](NC(=O)C(Cc1ccc(O)cc1)NC(=O)[C@@H](N)Cc1ccc(O)cc1)C(=O)N[C@@H](CCCNC(=N)N)C(=O)c1nc2ccccc2s1 (single isomer, unassigned) | 0% |
| C[C@H](O)[C@H](NC(=O)[C@H](CCc1ccccc1)NC(=O)CCc1ccccc1)C(=O)N[C@@H](CCCNC(=N)N)C(=O)c1nc2ccccc2s1 | > 75% |
| CC(C)[C@H](NC(=O)[C@H](Cc1cscn1)NC(=O)CCc1ccccc1)C(=O)N[C@@H](CCCNC(=N)N)C(=O)c1nc2ccccc2s1 | > 75% |

Molecular target: T2, Transmembrane protease serine 6 (Homo sapiens) (UniProt Q8IU80)
T2 sequence (whole entry): T1 sequence (Q8IU80 whole entry)
Assay: Reversible inhibition of recombinant human C-terminal V5-His-tagged matriptase-2 expressed in Drosophila S2 cells assessed as dissociation half time using Boc-Gln-Ala-ArgAMC as substrate measured for 1200 mins by fluorescence assay
Conditions: not given

| Compound | T1/2 |
| --- | --- |
| CC(C)[C@H](NC(=O)[C@H](Cc1cscn1)NC(=O)CCc1ccccc1)C(=O)N[C@@H](CCCNC(=N)N)C(=O)c1nc2ccccc2s1 | 48 min |

Species: Homo sapiens
Assay: Selectivity ratio of Ki for recombinant human matriptase (596 to 855 residues) expressed in Escherichia coli to Ki for recombinant human C-terminal V5-His-tagged matriptase-2 expressed in Drosophila S2 cells
Conditions: not given

| Compound | Ratio Ki |
| --- | --- |
| N=C(N)NCCC[C@H](NC(=O)[C@H](Cc1ccc(O)c(O)c1)NC(=O)C(Cc1ccc(O)cc1)NC(=O)[C@@H](N)Cc1ccc(O)cc1)C(=O)c1nc2ccccc2s1 (single isomer, unassigned) | 2 |
| CC(C)[C@H](NC(=O)C(Cc1ccc(O)cc1)NC(=O)[C@@H](N)Cc1ccc(O)cc1)C(=O)N[C@@H](CCCNC(=N)N)C(=O)c1nc2ccccc2s1 (single isomer, unassigned) | 12 |
| CC[C@H](C)[C@@H](NC(=O)[C@H](CCc1ccccc1)NC(=O)CCc1ccccc1)C(=O)N[C@@H](CCCNC(=N)N)C(=O)c1nc2ccccc2s1 | 17 |
| C[C@H](O)[C@H](NC(=O)[C@H](CCc1ccccc1)NC(=O)CCc1ccccc1)C(=O)N[C@@H](CCCNC(=N)N)C(=O)c1nc2ccccc2s1 | 64 |
| CC(C)[C@H](NC(=O)[C@H](Cc1ccccc1)NC(=O)[C@@H](N)Cc1ccc(O)cc1)C(=O)N[C@@H](CCCNC(=N)N)C(=O)c1nc2ccccc2s1 | 7 |
| N=C(N)NCCC[C@H](NC(=O)[C@H](Cc1c[nH]c2ccccc12)NC(=O)C(Cc1ccc(O)cc1)NC(=O)[C@@H](N)Cc1ccc(O)cc1)C(=O)c1nc2ccccc2s1 (single isomer, unassigned) | 2 |
| N=C(N)NCCC[C@H](NC(=O)[C@H](Cc1ccc(O)cc1)NC(=O)C(Cc1ccc(O)cc1)NC(=O)[C@@H](N)Cc1ccc(O)cc1)C(=O)c1nc2ccccc2s1 (single isomer, unassigned) | 6 |
| CC(C)(C)[C@H](NC(=O)[C@H](CCc1ccccc1)NC(=O)CCc1ccccc1)C(=O)N[C@@H](CCCNC(=N)N)C(=O)c1nc2ccccc2s1 | 27 |
| CC(C)[C@H](NC(=O)[C@H](Cc1cscn1)NC(=O)CCc1ccccc1)C(=O)N[C@@H](CCCNC(=N)N)C(=O)c1nc2ccccc2s1 | 10 |
| CC[C@H](C)[C@H](NC(=O)[C@H](CCc1ccccc1)NC(=O)CCc1ccccc1)C(=O)N[C@@H](CCCNC(=N)N)C(=O)c1nc2ccccc2s1 | 58 |
| N=C(N)NCCC[C@H](NC(=O)[C@H](Cc1cccs1)NC(=O)C(Cc1ccc(O)cc1)NC(=O)[C@@H](N)Cc1ccc(O)cc1)C(=O)c1nc2ccccc2s1 (single isomer, unassigned) | 3 |
| CC(C)CCC(=O)NC(Cc1ccc(O)cc1)C(=O)N[C@H](C(=O)N[C@@H](CCCNC(=N)N)C(=O)c1nc2ccccc2s1)C(C)C (single isomer, unassigned) | 5 |
| CC[C@@H](C)[C@H](NC(=O)[C@H](CCc1ccccc1)NC(=O)CCc1ccccc1)C(=O)N[C@@H](CCCNC(=N)N)C(=O)c1nc2ccccc2s1 | 20 |
| CC(C)C[C@H](NC(=O)[C@H](CCc1ccccc1)NC(=O)CCc1ccccc1)C(=O)N[C@@H](CCCNC(=N)N)C(=O)c1nc2ccccc2s1 | 23 |

Molecular target: T3, Suppressor of tumorigenicity 14 protein (Homo sapiens, UniProt Q9Y5Y6)
T3 sequence (Q9Y5Y6 whole entry): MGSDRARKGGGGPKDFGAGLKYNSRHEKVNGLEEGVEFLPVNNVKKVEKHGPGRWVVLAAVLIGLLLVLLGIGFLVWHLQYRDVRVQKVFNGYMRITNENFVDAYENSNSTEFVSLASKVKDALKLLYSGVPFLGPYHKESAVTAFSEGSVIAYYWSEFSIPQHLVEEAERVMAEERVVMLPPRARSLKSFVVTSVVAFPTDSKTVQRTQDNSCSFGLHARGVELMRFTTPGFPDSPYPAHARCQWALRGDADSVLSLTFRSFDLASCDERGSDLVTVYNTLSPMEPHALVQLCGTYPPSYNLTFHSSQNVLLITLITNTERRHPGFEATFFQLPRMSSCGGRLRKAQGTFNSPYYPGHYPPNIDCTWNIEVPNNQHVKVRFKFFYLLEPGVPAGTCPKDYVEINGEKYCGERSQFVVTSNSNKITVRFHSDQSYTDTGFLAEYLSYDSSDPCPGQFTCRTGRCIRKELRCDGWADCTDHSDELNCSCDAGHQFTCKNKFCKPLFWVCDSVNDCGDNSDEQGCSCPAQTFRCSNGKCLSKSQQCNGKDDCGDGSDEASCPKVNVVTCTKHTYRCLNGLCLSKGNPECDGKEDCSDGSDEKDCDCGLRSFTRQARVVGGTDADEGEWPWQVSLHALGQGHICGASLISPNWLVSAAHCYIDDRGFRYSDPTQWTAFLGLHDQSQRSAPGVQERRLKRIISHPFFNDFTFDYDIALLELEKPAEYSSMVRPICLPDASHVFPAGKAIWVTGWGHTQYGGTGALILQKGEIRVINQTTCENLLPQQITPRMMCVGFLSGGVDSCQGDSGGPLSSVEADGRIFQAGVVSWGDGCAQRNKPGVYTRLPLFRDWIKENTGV
Conditions: not given

| Compound | pKi |
| --- | --- |
| N=C(N)NCCC[C@H](NC(=O)[C@H](Cc1ccc(O)c(O)c1)NC(=O)C(Cc1ccc(O)cc1)NC(=O)[C@@H](N)Cc1ccc(O)cc1)C(=O)c1nc2ccccc2s1 (single isomer, unassigned) | 7.92 |
| CC[C@H](C)[C@@H](NC(=O)[C@H](CCc1ccccc1)NC(=O)CCc1ccccc1)C(=O)N[C@@H](CCCNC(=N)N)C(=O)c1nc2ccccc2s1 | 4.92 |
| C[C@H](O)[C@H](NC(=O)[C@H](CCc1ccccc1)NC(=O)CCc1ccccc1)C(=O)N[C@@H](CCCNC(=N)N)C(=O)c1nc2ccccc2s1 | 6.70 |
| CC(C)[C@H](NC(=O)[C@H](Cc1ccccc1)NC(=O)[C@@H](N)Cc1ccc(O)cc1)C(=O)N[C@@H](CCCNC(=N)N)C(=O)c1nc2ccccc2s1 | 7.20 |
| N=C(N)NCCC[C@H](NC(=O)[C@H](Cc1c[nH]c2ccccc12)NC(=O)C(Cc1ccc(O)cc1)NC(=O)[C@@H](N)Cc1ccc(O)cc1)C(=O)c1nc2ccccc2s1 (single isomer, unassigned) | 8.25 |
| N=C(N)NCCC[C@H](NC(=O)[C@H](Cc1ccc(O)cc1)NC(=O)C(Cc1ccc(O)cc1)NC(=O)[C@@H](N)Cc1ccc(O)cc1)C(=O)c1nc2ccccc2s1 (single isomer, unassigned) | 8.15 |
| CC(C)(C)[C@H](NC(=O)[C@H](CCc1ccccc1)NC(=O)CCc1ccccc1)C(=O)N[C@@H](CCCNC(=N)N)C(=O)c1nc2ccccc2s1 | 4.82 |
| CC(C)[C@H](NC(=O)[C@H](Cc1cscn1)NC(=O)CCc1ccccc1)C(=O)N[C@@H](CCCNC(=N)N)C(=O)c1nc2ccccc2s1 | 7.92 to 8.40 |
| CC[C@H](C)[C@H](NC(=O)[C@H](CCc1ccccc1)NC(=O)CCc1ccccc1)C(=O)N[C@@H](CCCNC(=N)N)C(=O)c1nc2ccccc2s1 | 6.64 |
| N=C(N)NCCC[C@H](NC(=O)[C@H](Cc1cccs1)NC(=O)C(Cc1ccc(O)cc1)NC(=O)[C@@H](N)Cc1ccc(O)cc1)C(=O)c1nc2ccccc2s1 (single isomer, unassigned) | 7.72 |
| CC(C)CCC(=O)NC(Cc1ccc(O)cc1)C(=O)N[C@H](C(=O)N[C@@H](CCCNC(=N)N)C(=O)c1nc2ccccc2s1)C(C)C (single isomer, unassigned) | 7.55 |
| CC[C@@H](C)[C@H](NC(=O)[C@H](CCc1ccccc1)NC(=O)CCc1ccccc1)C(=O)N[C@@H](CCCNC(=N)N)C(=O)c1nc2ccccc2s1 | 7.29 |
| CC(C)C[C@H](NC(=O)[C@H](CCc1ccccc1)NC(=O)CCc1ccccc1)C(=O)N[C@@H](CCCNC(=N)N)C(=O)c1nc2ccccc2s1 | 6.92 |
